Columns and labels:
[1] = Solubility in acrylate monomer (fluorescence measurement); assay type: physicochemical
Procedure: Solubility of the dyes was determined in various acrylate monomers using standard fluorescence measurement techniques (SPEX Fluorolog-3 Spectrophotometer, SPEX Industries, Edison, N.J.).

[2] = Solubility in acetone; assay type: physicochemical; conditions: acetone added until no undissolved dye remained
Procedure: Solubility of the dyes in acetone was determined by weighing a small amount of dye into a jar and adding small aliquots of acetone until no undissolved dye remained.

[3] = acrylate monomer BMA (butyl methacrylate)
[4] = acrylate monomer LMA (lauryl methacrylate)

## C=CC(=O)OCCn1c(=O)c2ccc3sc4ccccc4c4ccc(c1=O)c2c34 [AD-7]
[1]; [3]
  Solubility of dyes in acrylate monomers: 301 μg dye/mL of acrylate monomer
[1]; [4]
  Solubility of dyes in acrylate monomers: 114 μg dye/mL of acrylate monomer
[2]
  Solubility of dye in acetone: 0.83 g acetone/mg of dye

## C=CC(=O)OCCOc1cc2c3ccccc3c(=O)c3ccc4c5ccccc5sc1c4c32 [AD-5]
[2]
  Solubility of dye in acetone: 0.65 g acetone/mg of dye

## C=CC(=O)OCCn1c(=O)c2ccc3sc4ccccc4c4ccc(c1=O)c2c34 [AD-6]
[1]; [3]
  Solubility of dyes in acrylate monomers: 559 μg dye/mL of acrylate monomer
[1]; [4]
  Solubility of dyes in acrylate monomers: 227 μg dye/mL of acrylate monomer
[2]
  Solubility of dye in acetone: 11.6 g acetone/mg of dye

## C=CC(=O)OCCn1c(=O)c2ccc3sc4ccccc4c4ccc(c1=O)c2c34 [AD-1]
[1]; [3]
  Solubility of dyes in acrylate monomers: 1217 μg dye/mL of acrylate monomer
[1]; [4]
  Solubility of dyes in acrylate monomers: 816 μg dye/mL of acrylate monomer
[2]
  Solubility of dye in acetone: 0.83 g acetone/mg of dye

## C=CC(=O)OCCOc1cc2c3ccccc3c(=O)c3ccc4c5ccccc5sc1c4c32 [AD-4]
[2]
  Solubility of dye in acetone: 11.0 g acetone/mg of dye

Source: patent US6930184B2, “Functional fluorescent dyes” (3M Innovative Properties Company, priority 2002, dated 2005)
